Here are results for 30 compounds from ChEMBL document CHEMBL4346735, “Discovery and pharmacological evaluation of indole derivatives as potent and selective RORγt inverse agonist for multiple autoimmune conditions” (Bioorg Med Chem Lett, 2019).

Data set [1] is described as follows: Solubility of the compound at pH 4. The following applies: buffer.
Data set [2] in a line: Solubility of the compound at pH 2.1. The following applies: buffer.
A further data set deals with Cytochrome P450 2C19 (Homo sapiens, UniProt P33261). The experiment in a line: Inhibition of CYP2C19 in human liver microsomes using (S)-mephenytoin as substrate preincubated for 5 mins followed by NADPH addition measured after 40 mins by LC-MS/MS analysis. Background: Microsomes from liver hold many membrane-bound enzymes, among them those of drug oxidation.
Data set [3] is described as follows: Metabolic stability in human liver microsomes assessed as parent compound remaining at 1 uM preincubated for 5 mins followed by NADPH addition after 30 mins by LC-MS/MS analysis. Particulars: read-out: Stability. It is filed as ADME, Microsome.
Data set [4] in a line: Metabolic stability in mouse liver microsomes assessed as parent compound remaining at 1 uM preincubated for 5 mins followed by NADPH addition after 30 mins by LC-MS/MS analysis. It is filed as ADME, Microsome. Particulars: read-out: Stability.
For a further data set, the target named is Cytochrome P450 3A4 (Homo sapiens, UniProt P08684). The experiment in a line: Inhibition of CYP3A4 in human liver microsomes using testosterone as substrate preincubated for 5 mins followed by NADPH addition measured after 10 mins by LC-MS/MS analysis.
The target in the next data set is T1, Cytochrome P450 1A2 (Homo sapiens, UniProt P05177).
T1 sequence (P05177 whole entry): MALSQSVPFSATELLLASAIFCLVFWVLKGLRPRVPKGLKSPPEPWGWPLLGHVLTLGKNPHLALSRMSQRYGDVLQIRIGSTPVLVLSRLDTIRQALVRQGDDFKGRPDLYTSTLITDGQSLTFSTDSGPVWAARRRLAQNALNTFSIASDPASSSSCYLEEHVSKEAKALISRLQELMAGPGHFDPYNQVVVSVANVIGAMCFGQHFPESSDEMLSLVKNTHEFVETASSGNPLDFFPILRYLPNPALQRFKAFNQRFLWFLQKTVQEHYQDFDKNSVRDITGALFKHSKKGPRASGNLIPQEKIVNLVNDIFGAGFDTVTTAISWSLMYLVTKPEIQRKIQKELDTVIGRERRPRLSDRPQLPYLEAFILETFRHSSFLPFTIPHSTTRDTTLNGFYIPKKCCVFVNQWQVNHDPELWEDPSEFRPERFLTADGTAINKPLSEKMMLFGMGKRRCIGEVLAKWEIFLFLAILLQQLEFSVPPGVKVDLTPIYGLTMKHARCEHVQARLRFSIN
The experiment in a line: Inhibition of CYP1A2 in human liver microsomes using phenacetin as substrate preincubated for 5 mins followed by NADPH addition measured after 10 mins by LC-MS/MS analysis.

Data set [5] in a line: Metabolic stability in rat liver microsomes assessed as parent compound remaining at 1 uM preincubated for 5 mins followed by NADPH addition after 30 mins by LC-MS/MS analysis. It is filed as ADME, Microsome. Particulars: read-out: Stability.
Data set [6] is described as follows: Solubility of the compound at pH 7.4. The following applies: buffer.
The target of data set [7] is T2, Nuclear receptor ROR-gamma (Homo sapiens, UniProt P51449).
T2 sequence (P51449 whole entry): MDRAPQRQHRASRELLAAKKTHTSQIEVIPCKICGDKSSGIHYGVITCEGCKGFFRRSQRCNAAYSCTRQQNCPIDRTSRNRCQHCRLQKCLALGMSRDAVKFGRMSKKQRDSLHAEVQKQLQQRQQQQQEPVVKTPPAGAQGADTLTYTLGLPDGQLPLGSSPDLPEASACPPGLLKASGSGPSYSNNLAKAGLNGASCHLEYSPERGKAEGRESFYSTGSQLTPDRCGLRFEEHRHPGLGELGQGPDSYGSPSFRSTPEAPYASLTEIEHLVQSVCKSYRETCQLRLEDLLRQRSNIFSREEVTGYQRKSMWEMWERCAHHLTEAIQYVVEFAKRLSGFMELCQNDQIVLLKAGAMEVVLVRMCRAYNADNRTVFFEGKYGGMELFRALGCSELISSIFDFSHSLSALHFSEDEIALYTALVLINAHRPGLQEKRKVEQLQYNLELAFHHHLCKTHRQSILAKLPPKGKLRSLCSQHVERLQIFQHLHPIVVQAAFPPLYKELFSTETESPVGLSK
The experiment in a line: Transactivation of recombinant GAL4-DBD fused RORgammat LBD (unknown origin) expressed in HEK293T cells incubated for 18 to 24 hrs by dual-Glo luciferase assay. It is filed as cell-based.

The target in another data set is Cytochrome P450 2D6 (Homo sapiens, UniProt P10635). The experiment in a line: Inhibition of CYP2D6 in human liver microsomes using dextromethorphan as substrate preincubated for 5 mins followed by NADPH addition measured after 10 mins by LC-MS/MS analysis.
A further data set deals with Cytochrome P450 2C9 (Homo sapiens, UniProt P11712). The experiment in a line: Inhibition of CYP2C9 in human liver microsomes using diclofenac as substrate preincubated for 5 mins followed by NADPH addition measured after 10 mins by LC-MS/MS analysis.
Data set [8] addresses T2, Nuclear receptor ROR-gamma. The experiment in a line: Inverse agonist activity at GST-tagged RORgammat LBD (unknown origin) using fluorescein-D22 co-activator peptide as substrate incubated for 1 hr by TR-FRET assay. For orientation: In TR-FRET formats the signal depends on donor and acceptor labels being close together.

Converted amounts (≈) assume the structure as drawn.

For orientation: solubility means how much of the substance goes into solution per volume. Low values mean little dissolved substance, high ones much dissolved substance. The IC50 is the point on the concentration scale where inhibition reaches its midpoint.

Cytochrome P450 3A4, sequence (P08684 whole entry): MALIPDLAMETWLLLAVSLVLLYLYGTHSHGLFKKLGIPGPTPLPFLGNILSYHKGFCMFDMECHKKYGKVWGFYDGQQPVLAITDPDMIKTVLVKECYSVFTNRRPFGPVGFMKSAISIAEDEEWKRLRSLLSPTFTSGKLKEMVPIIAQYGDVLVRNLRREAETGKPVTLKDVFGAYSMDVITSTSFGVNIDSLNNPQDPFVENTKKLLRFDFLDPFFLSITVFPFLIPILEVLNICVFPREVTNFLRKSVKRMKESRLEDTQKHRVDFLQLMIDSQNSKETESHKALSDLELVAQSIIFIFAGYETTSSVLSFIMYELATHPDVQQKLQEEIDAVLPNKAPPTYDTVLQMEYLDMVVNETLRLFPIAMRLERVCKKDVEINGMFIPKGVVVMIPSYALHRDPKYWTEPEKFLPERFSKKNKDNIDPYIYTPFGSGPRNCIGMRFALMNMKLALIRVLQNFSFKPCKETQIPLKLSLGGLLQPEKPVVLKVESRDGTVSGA
Cytochrome P450 2D6, sequence (P10635 whole entry): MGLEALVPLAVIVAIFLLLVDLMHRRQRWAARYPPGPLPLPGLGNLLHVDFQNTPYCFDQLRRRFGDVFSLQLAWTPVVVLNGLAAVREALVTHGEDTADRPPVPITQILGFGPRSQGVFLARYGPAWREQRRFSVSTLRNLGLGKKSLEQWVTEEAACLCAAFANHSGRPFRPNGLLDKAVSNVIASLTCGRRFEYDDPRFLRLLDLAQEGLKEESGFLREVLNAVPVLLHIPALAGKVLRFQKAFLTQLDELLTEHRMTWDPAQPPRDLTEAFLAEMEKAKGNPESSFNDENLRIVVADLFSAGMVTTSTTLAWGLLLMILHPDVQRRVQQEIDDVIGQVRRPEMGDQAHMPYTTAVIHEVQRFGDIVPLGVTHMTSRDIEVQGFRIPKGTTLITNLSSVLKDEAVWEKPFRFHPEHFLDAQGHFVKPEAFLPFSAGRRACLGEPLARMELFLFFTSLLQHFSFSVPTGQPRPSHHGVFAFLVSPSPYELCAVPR
Cytochrome P450 2C9, sequence (P11712 whole entry, the tested form may be a part): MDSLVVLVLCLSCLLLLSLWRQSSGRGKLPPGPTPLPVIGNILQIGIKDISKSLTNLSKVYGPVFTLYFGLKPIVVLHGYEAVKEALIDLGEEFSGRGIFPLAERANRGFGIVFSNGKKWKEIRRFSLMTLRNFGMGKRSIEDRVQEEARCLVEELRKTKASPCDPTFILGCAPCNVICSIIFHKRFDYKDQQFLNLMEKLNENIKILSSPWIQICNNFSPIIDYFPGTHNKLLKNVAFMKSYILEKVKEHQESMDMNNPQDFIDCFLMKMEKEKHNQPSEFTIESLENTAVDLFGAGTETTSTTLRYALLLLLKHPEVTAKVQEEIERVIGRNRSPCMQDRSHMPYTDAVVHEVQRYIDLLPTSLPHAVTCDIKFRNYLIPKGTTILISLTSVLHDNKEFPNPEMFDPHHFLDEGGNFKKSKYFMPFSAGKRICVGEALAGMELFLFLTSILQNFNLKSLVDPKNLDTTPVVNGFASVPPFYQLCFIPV
Cytochrome P450 2C19, sequence (P33261 whole entry): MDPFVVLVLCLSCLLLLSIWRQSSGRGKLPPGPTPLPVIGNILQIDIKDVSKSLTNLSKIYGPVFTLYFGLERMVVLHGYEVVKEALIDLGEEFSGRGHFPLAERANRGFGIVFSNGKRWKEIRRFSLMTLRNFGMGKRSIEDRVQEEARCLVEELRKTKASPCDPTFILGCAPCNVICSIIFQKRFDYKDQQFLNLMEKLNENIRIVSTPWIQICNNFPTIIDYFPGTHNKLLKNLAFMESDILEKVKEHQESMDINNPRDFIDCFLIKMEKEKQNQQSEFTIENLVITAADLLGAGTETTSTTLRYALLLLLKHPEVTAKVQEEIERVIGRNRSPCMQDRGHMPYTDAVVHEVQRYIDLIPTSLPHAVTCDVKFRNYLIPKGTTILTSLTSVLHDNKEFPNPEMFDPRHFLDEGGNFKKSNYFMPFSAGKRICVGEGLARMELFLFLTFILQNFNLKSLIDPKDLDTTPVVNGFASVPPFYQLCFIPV

As for `Cc1cccc(Cl)c1C(=O)c1cn(-c2ccc(C(=O)O)cc2F)c2ncccc12`, the solubility in data set [1] is 1 µM (≈ 0.409 µg/mL); in [2] it was under 1 µM; in data set [6], 1960 µM (≈ 803 µg/mL). In addition, the IC50 against Cytochrome P450 2C19 was over 50 µM; at Cytochrome P450 3A4, over 50 µM; against Cytochrome P450 1A2 it was over 50 µM; in data set [7], 0.027 µM. Also, the values for the remaining at 0.5 h, 1 µM in [3], in data set [4] and in [5] were 88%, 93% and 73%, respectively.
Take `Cc1cc(-n2cc(C(=O)c3c(Cl)cccc3Cl)c3ccccc32)ccc1C(=O)O`: the concentration for half-maximal inhibition (IC50) in [7] amounted to 2.01 µM.
`O=C(O)c1ccc(-n2cc(C(=O)c3c(Cl)cccc3Cl)c3ccccc32)cc1C(F)(F)F`: the remaining at 0.5 h, 1 µM is 71% in data set [3], 61% in data set [4] and 61% in data set [5]. In addition, the IC50 in data set [7] was over 1 µM.
With `Cc1cccc(Cl)c1C(=O)c1cn(-c2ccc(C(=O)O)cc2)c2cccc(F)c12`, the remaining at 0.5 h, 1 µM in data set [3] is 77%; in data set [4] it was 80%; in data set [5] it was 70%. In [7], the IC50 came to 0.093 µM.
For `Cc1cccc(Cl)c1C(=O)c1cn(-c2ccc(C(=O)O)cc2)c2c(F)cccc12`, the IC50 on Cytochrome P450 2C19 was over 50 µM; on Cytochrome P450 2D6, over 50 µM; against Cytochrome P450 3A4, 27.2 µM; in data set [7], 0.011 µM; against Cytochrome P450 2C9 it was 32 µM. The results for the remaining at 0.5 h, 1 µM in data set [3], in data set [4] and in data set [5] were 66%, 80% and 70%, respectively.
On to `O=C(O)c1ccc(-n2cc(C(=O)c3c(F)cc(F)cc3Cl)c3ccccc32)cc1`, for which, in [7], the IC50 is 0.21 µM.
For the compound `O=C(O)c1ccc(-n2cc(C(=O)c3c(Cl)cccc3C(F)(F)F)c3cccnc32)cc1`, the values for the remaining at 0.5 h, 1 µM in data set [3], in data set [4] and in [5] were 83%, 84% and 55%, respectively. For the same compound, the IC50 in [7] turned out to be 0.044 µM.
For `O=C(O)c1ccc(-n2cc(C(=O)c3c(Cl)cccc3Cl)c3cc(F)ccc32)cc1`, the values for the remaining at 0.5 h, 1 µM in data set [3], in data set [4] and in data set [5] were 87%, 82% and 76%, respectively. For the same compound, the IC50 in data set [7] turned out to be 0.251 µM.
`O=C(O)c1ccc(-n2cc(C(=O)c3c(Cl)cccc3Cl)c3c(F)cccc32)c(F)c1`: the IC50 at Cytochrome P450 2C19 is over 50 µM; against Cytochrome P450 2D6, over 50 µM; on Cytochrome P450 3A4 it was 8.34 µM; against Cytochrome P450 1A2, over 50 µM; in data set [7], 0.037 µM; at Cytochrome P450 2C9 it was 8.01 µM. Besides, the results for the remaining at 0.5 h, 1 µM in data set [3], in [4] and in [5] were 88%, 100% and 44%, respectively.
On to `Cc1cccc2c(C(=O)c3ccccc3Cl)cn(-c3ccc(C(=O)O)cc3F)c12`, for which the IC50 in [8] was determined as 0.0081 µM; in data set [7], 0.119 µM. Further, the remaining at 0.5 h, 1 µM in data set [4] was determined as 67%.
For `O=C(O)c1ccc(-n2cc(C(=O)c3c(Cl)cccc3Cl)c3ccccc32)cc1O`, the remaining at 0.5 h, 1 µM amounted to 68% in data set [3], 77% in data set [4] and 3% in data set [5]. In data set [7], the IC50 came to 0.005 µM.
On to `O=C(O)c1cc(Cl)c(-n2cc(C(=O)c3c(Cl)cccc3Cl)c3ccccc32)c(Cl)c1`, for which, in [7], the IC50 is 0.506 µM.
As to `O=C([O-])c1ccc(-n2cc(C(=O)c3c(Cl)cccc3Cl)c3ccccc32)cc1.[Na+]`, the solubility in data set [1] was 30 µM; in data set [2], 52 µM; in data set [6] it was over 2000 µM.
Turning to `O=C(O)c1cc(F)c(-n2cc(C(=O)c3c(Cl)cccc3Cl)c3ccccc32)c(F)c1`, the results for the remaining at 0.5 h, 1 µM in [3], in [4] and in data set [5] were 94%, 75% and 30%, respectively. Moreover, in [7], the IC50 was determined as 0.01 µM.
`O=C(O)c1ccc(-n2cc(C(=O)c3c(Cl)cccc3Cl)c3ccccc32)cc1F`: the remaining at 0.5 h, 1 µM in data set [4] is 92%. Further, the IC50 in [7] turned out to be 0.29 µM.
Turning to `Cc1c(C(=O)c2c(Cl)cccc2Cl)c2ccccc2n1-c1ccc(C(=O)O)cc1`, the IC50 is 0.156 µM in data set [8] and over 5 µM in data set [7]. The remaining at 0.5 h, 1 µM in data set [4] was 92%.
For `COc1cccc2c(C(=O)c3c(Cl)cccc3Cl)cn(-c3ccc(C(=O)O)cc3)c12` the same measures were 0.35 µM, 0.731 µM and 83%.
With `O=C(O)c1ccc(-n2cc(C(=O)c3c(Cl)cccc3Cl)c3cccc(F)c32)c(F)c1`, the remaining at 0.5 h, 1 µM in data set [3] was determined as 65%; in data set [4], 72%; in [5], 73%.
On to `O=C(O)c1ccc(-n2cc(C(=O)c3c(Cl)cccc3Cl)c3ccccc32)c(C(F)(F)F)c1`, for which the remaining at 0.5 h, 1 µM is 99% in [3], 85% in data set [4] and 45% in [5]. The IC50 in data set [7] was over 3 µM.
As to `O=C(O)c1ccc(-n2cc(C(=O)c3c(Cl)cc(Cl)cc3Cl)c3ccccc32)cc1`, the remaining at 0.5 h, 1 µM in data set [4] is 90%. Also, in [7], the IC50 amounted to 0.107 µM.
Regarding `O=C(O)c1ccc(-n2cc(C(=O)c3c(Cl)cccc3Cl)c3ccc(F)cc32)cc1`, the results for the remaining at 0.5 h, 1 µM in data set [3], in data set [4] and in data set [5] were 91%, 80% and 61%, respectively. In data set [7], the IC50 is 0.199 µM.
`O=C(O)c1ccc(-n2cc(C(=O)c3c(Cl)cccc3Cl)c3ccccc32)c(F)c1F`: the remaining at 0.5 h, 1 µM in data set [4] is 100%. The IC50 in data set [7] is 0.075 µM.
Taken in the same sequence, the figures for `O=C(O)c1ccc(-n2cc(C(=O)c3c(Cl)cccc3Cl)c3cccc(Cl)c32)cc1` were 76% and 0.07 µM.
`Cc1cc(C(=O)O)ccc1-n1cc(C(=O)c2c(Cl)cccc2Cl)c2ccccc21`: the IC50 in [7] is 0.213 µM.
In the case of `O=C(O)c1ccc(-n2cc(C(=O)c3c(F)cccc3F)c3ccccc32)cc1`, the remaining at 0.5 h, 1 µM in [3] is 92%; in [4] it was 94%; in data set [5] it was 88%. Also, the IC50 in data set [7] is 0.445 µM.
For `O=C(O)c1ccc(-n2cc(C(=O)c3c(Cl)cccc3Cl)c3ccccc32)c(Cl)c1` the same measures were 76%, 64%, 48% and 0.124 µM.
Turning to `O=C(O)c1ccc(-n2cc(C(=O)c3ccccc3Cl)c3ccccc32)cc1`, the remaining at 0.5 h, 1 µM in data set [4] was found to be 96%. In data set [7], the IC50 amounted to 0.205 µM.
As to `Cc1cccc(Cl)c1C(=O)c1cn(-c2ccc(C(=O)O)cc2F)c2cccc(F)c12`, the remaining at 0.5 h, 1 µM in data set [3] is 75%; in [4], 68%; in [5], 43%. Further, the IC50 in data set [7] turned out to be 0.036 µM.
In the case of `Cc1cccc(Cl)c1C(=O)c1cn(-c2ccc(C(=O)O)cc2F)c2ccccc12`, the remaining at 0.5 h, 1 µM in data set [3] came out at 59%; in data set [4], 84%; in [5], 46%. Moreover, the IC50 in data set [7] came out at 0.021 µM.
Consider `O=C(O)c1ccc(-n2cc(C(=O)c3c(Cl)cccc3C(F)(F)F)c3c(F)cccc32)cc1`, for which the IC50 at Cytochrome P450 2C19 was 50 µM; at Cytochrome P450 2D6, over 50 µM; at Cytochrome P450 3A4, 16.4 µM; at Cytochrome P450 1A2 it was over 50 µM; in [7], 0.038 µM; on Cytochrome P450 2C9, 22.6 µM. The remaining at 0.5 h, 1 µM in data set [3] was 79%; in [4], 96%; in data set [5], 65%.
